# Source: patent publication US7687640B2, “Cinnamide compound” (Eisai R&D Management Co., Ltd., priority 2004, dated 2010)
# Tested on: Aβ42 production
# Assay: Quantification of Aβ peptide (Aβx-42 ELISA) in neuronal culture from rat fetus brain
# Assay type: cell-based
# Settings: primary neuronal culture from cerebral cortices of embryonic day 18 Wistar rat; compound added on day 4 of culture, incubation for 3 days; Aβx-42 in medium by ELISA, % of CTRL; read-out: Effect to Reduce Aβ42 Production IC50
# Method: Quantification of Aβ Peptide in Neuronal Culture from Rat Fetus Brain (1)
# Primary neuronal cultures were prepared from cerebral cortices from embryonic day 18 Wistar rat (Charles River Japan, Yokohama, Japan). The embryos were aseptically removed from a pregnant rat under ether anesthesia. The brain was isolated from the embryo, and immersed in ice-cold L-15 medium (for example, Invitrogen Corp. Cat #11415-064, Carlsbad, Calif., USA, or SIGMA L1518, St. Louis. MO, USA). The cerebral cortex was collected under a stereoscopic microscope from the brain. The cerebral cortex fragments collected were subjected to enzyme treatment in an enzyme solution containing 0.25% trypsin (for example, Invitrogen Corp., Cat #15050-065, Carlsbad, Calif., USA) and 0.01% DNase (for example, Sigma D5025, St. Louis. MO, USA) at 37 C for 30 minutes to allow for cell dispersion. The enzyme reaction was terminated by addition of same volume of heat-inactivated horse serum. After centrifugation at 1500 rpm for 5 minutes, the supernatant was removed and 5-10 ml of medium was added to the cell pellet. Neurobasal Medium™ (Invitrogen Corp., Carlsbad, Calif., USA) supplemented with 2% B-27 supplement (Invitrogen Corp., Carlsbad, Calif., USA), 25 μM 2-mercaptoethanol (2-ME, WAKO, 139-06861, Osaka, Japan), 0.5 mM L-glutamine (for example, Invitrogen Corp., Cat # 25030-081, Carlsbad, Calif., USA), and 1% antibiotics-antimycotics (Invitrogen Corp., Cat # 15240-062, Carlsbad, Calif., USA) was used as the culture medium (Neurobasal/B27/2-ME). At the compound evaluation, the medium of the same composition not to add 2-ME alone (Neurobasal/B27) was used. The cell pellet was triturated by mild pipetting. Remaining cell pellet was removed by filtering through a 40-μm nylon mesh (Cell Strainer, Cat # 35-2340, Becton Dickinson Labware, Franklin Lakes, N.J., USA) and a neuronal cell suspension was obtained. The neuronal cell suspension was diluted with the Neurobasal/B27/2-ME medium and then plated in a volume of 100 μl/well to obtain an initial cell density of 5×10^5 cells/cm^2 in a 96-well polystyrene plate pre-coated with poly-L or D-lysine (for example, Falcon MICROTEST Tissue culture plate 96 well flat bottom with low evaporation lid (Cat # 35-3075, Becton Dickinson Labware, Franklin Lakes, N.J., USA) coated with poly-L-lysine using the method shown below, or BIOCOAT™ cell environments Poly-D-lysine cell ware 96-well plate, Cat # 35-6461, Becton Dickinson Labware, Franklin Lakes, N.J., USA). Poly-L-lysine coating was carried out as follows. Poly-L-lysine (SIGMA P2636, St. Louis, Mo., USA) solution at 100 μg/ml was prepared aseptically with 0.15 M Borate buffer (pH 8.5). The solution was added to a 96-well polystyrene […] at 50-100 μl/well and incubated at room temperature for one hour or more, or at 4 C overnight or longer. This was rinsed 4 or more times with sterile water, and then dried or rinsed with, for example, sterile PBS or medium, and used for plating cells. Cells were cultured for one day in an incubator of 5% CO2-95% air at 37 C, the entire amount of the medium was exchanged with fresh Neurobasal/B27/2-ME, and the cells were then cultured for further 3 days.
# Drugs were added on day 4 of culture as follows. The entire amount of the medium was removed from culture well, and Neurobasal/B27 medium was added at 180 μl/well. The test compound dimethyl sulfoxide (hereinafter abbreviated as DMSO) solution was diluted with Neurobasal/B27 so than it would be 10-fold of the desired final concentration. A diluent was added at 20 μl/well and mixed well. The final concentration of DMSO was 1% or less. Only DMSO was added to the control group.
# After incubation for 3 days, the entire amount of the medium was collected as ELISA sample. This was used without any dilution for Aβx-42 measurement, and diluted to 5-fold with the diluent supplied with ELISA kit for Aβx-40 measurement, before subjecting to respective ELISA assays. […]
row,SMILES,IC50 [nM]
1,"COc1cc(/C=C2\CCCN(C(c3ccc(F)cc3)C(C)C)C2=O)ccc1-n1cnc(C)c1 [Example 976, (E)-1-[(1S) and (1R)-1-(4-fluorophenyl)-2-methylpropyl]-3-[3-methoxy-4-(4-methyl-1H-imidazol-1-yl)benzylidene]piperidin-2-one]",80
2,"COc1cc(/C=C2\CCCN([C@@H](C)c3ccc(F)cc3)C2=O)ccc1-n1cnc(C)c1 [Example 425, (E)-1-[(1S)-1-(4-fluorophenyl)ethyl]-3-[3-methoxy-4-(4-methyl-1H-imidazol-1-yl)benzylidene]piperidin-2-one]",80
3,"COc1cc(/C=C2\CCCN(Cc3cccc(F)c3)C2=O)ccc1-n1cnc(C)c1 [Example 398, (E)-1-(3-fluorobenzyl)-3-[3-methoxy-4-(4-methyl-1H-imidazol-1-yl)benzylidene]piperidin-2-one]",220
